Data on 2 compounds can be found in patent US20210008015A1, “HEPATOPROTECTENT PHENYLBUTYRATYRATE DRUG CONJUGATES, AND THEIR COMPOSITIONS PREPARATION AND METHODS OF USE THEREOF” (priority 2019, published 2021).

Values joined by “and” are separate entries in the source; they are usually repeats but may differ in a detail not shown here. Equal values may be shown once.

The subject of one data set is formaldehyde pain model. Description: In vivo comparative pain-relieving model study (formaldehyde pain model). Conditions: Test 300 mg/kg orally, reference 150 mg/kg; for Amplitude of rubbing activity, Mean / Amplitude of rubbing activity, Sum: group of 4 rabbits; for Amplitude of rubbing activity, Mean / Amplitude of rubbing activity, Sum / Amplitude of rubbing activity: 60 min post dose of formalin; for No. of rubbings / Amplitude of rubbing activity: individual rabbit; for No. of rubbings: 60 min post dose of formalin (2.5%, 0.1 ml into paw). Also noted: species or system Rabbits. As to the method: 12 Rabbits (M&F) (formaldehyde pain model 6 hr) were divided into 3 groups 4 rabbits in each group, Group-A Test (Acetaminophen phenylbutyrate) and Group-B reference (Acetaminophen) and Group-C Control (placebo). Group-A 4 rabbits (2M & 2F) were treated with Test 300 mg/kg orally given and 150 mg/kg; reference compound given to Group-B 4 rabbits (2M & 2F) and placebo given to group-C after 15 min each rat was dosed with 2.5% formalin in saline solution 0.1 ml was injected into middle of paw, and monitor for number of licking or scratching's happened with each animal in all groups and compared each group with other in the below table.

The subject of another data set is yeast-induced pyrexia. As to the kind of experiment: In vivo comparative antipyretic effect study (Baker's yeast induced pyrexia). Also noted: species or system SD rats. Particulars: for Effect on yeast-induced pyrexia (rise in temperature), 3 hours / Effect on yeast-induced pyrexia (rise in temperature), 6 hours / Effect on yeast-induced pyrexia (rise in temperature), 9 hours: SD rats, Test 300 mg/kg orally, reference 150 mg/kg, Mean ± SD, in °C (unit assumed). The method, then:
The in vivo pharmacological study conducted the anti-pyretic activity of acetaminophen Phenylbutyrate (APPB) formulations in SD rats against yeast induced pyrexia 12 rats (M&F) (Baker's yeast induced antipyretic model 24 hr) After measuring basal TR of the animals, they were injected with a pyrogenic dose of Baker's yeast (0.135 g/kg, i.p.). TR changes were recorded every hour up to 4 h. […] Animals were randomly divided into three groups 4 rats in each group, Group-A Test (Acetaminophen phenylbutyrate) and Group-B reference (Acetaminophen) and Group-C Control (placebo). Group-A 4 rats (2M & 2F) were treated with Test 300 mg/kg orally given and 150 mg/kg reference compound given to Group-B 4 rats (2M & 2F) and placebo given to group-C. From the time baker yeast injection body temperature will rise keep monitor every 30-60 min once and record. And after treatment (time after treatment with test, reference and placebo) the body temperature was monitored rectally, for next 6 hr (0, 0.5, 1.0, 1.5, 2, 3, 4, and 6) using digital thermometer which can capture 0.1 F body temp ad recorded. […] Yeast injection in experimental animals caused significant rise in body temperature at the various time intervals as recorded rectally with the help of a tele-thermometer.

Another data set deals with Sprague Dawley (SD) rats. As to the kind of experiment: In vivo safety and dose ranging study.

Consider `CC(=O)Nc1ccc(O)cc1` [Acetaminophen, N-(4-hydroxyphenyl)acetamide, reference compound], for which, in the data set with formaldehyde pain model, the “Amplitude of rubbing activity, Mean” value is 2.78 s; the “Amplitude of rubbing activity, Sum” value was 16.7 s; the No. of rubbings was 1 (2×) and 2 (2×); the “Amplitude of rubbing activity” value was 3.1 s and 6.7 s and 2.6 s and 4.3 s. Moreover, in the data set on yeast-induced pyrexia, the “Effect on yeast-induced pyrexia (rise in temperature), 3 hours” value amounted to 0.83 ± 0.08; the “Effect on yeast-induced pyrexia (rise in temperature), 6 hours” value came out at 1.31 ± 0.23; the “Effect on yeast-induced pyrexia (rise in temperature), 9 hours” value is 1.91 ± 0.14. Besides, the “attenuation of rise in temperature, in words” value (“attenuation of rise” for short) in the data set on yeast-induced pyrexia (all time intervals) is listed as “attenuated the rise in temperature to a significant extent at all time intervals”.
Turning to `CC(=O)N(C(=O)CCCc1ccccc1)c1ccc(O)cc1` [APPB, N-(4-phenylbutanoyl)-N-(4-hydroxyphenyl)acetanyide], in the data set on formaldehyde pain model, the “Amplitude of rubbing activity, Mean” value came out at 3.62 s; the “Amplitude of rubbing activity, Sum” value amounted to 36.19 s; the No. of rubbings is 4 and 3 and 2 and 1; the “Amplitude of rubbing activity” value was 12.64 s and 11.84 s and 6.69 s and 5.02 s. Besides, in the data set on Sprague Dawley (SD) rats (500, 1000 and 1500 mg/kg/per day orally for 5 days, M&F SD rats), the “treatment related clinical signs” value was “No treatment related clinical signs were noticed”. In addition, the survival result with Sprague Dawley (SD) rats (500, 1000 and 1500 mg/kg/per day orally for 5 days, observation for one week after treatment) is listed as “All group animals were survived”. The overall safety conclusion entry in the data set on Sprague Dawley (SD) rats (500-1500 mg/kg/per day orally for 5 days) was “safe for prolonged use at higher doses”. Further, the “attenuation of rise” value with yeast-induced pyrexia (6 and 9 h after yeast injection, in comparison to placebo control group) is listed as “attenuated the raise in temperature in a highly significant manner”. Moreover, the “attenuation of rise” value with yeast-induced pyrexia (3 h after yeast injection) is “significantly attenuated the rise in temperature”. Moreover, in the data set with yeast-induced pyrexia, the “Effect on yeast-induced pyrexia (rise in temperature), 3 hours” value worked out at 1.21 ± 0.13; the “Effect on yeast-induced pyrexia (rise in temperature), 6 hours” value is reported as 1.48 ± 0.08; the “Effect on yeast-induced pyrexia (rise in temperature), 9 hours” value turned out to be 1.83 ± 0.06.
